Some results are limits rather than exact numbers.

Assay type in all cases: functional, cell-based
In one assay the test system is A2780. In words: Cytotoxicity against human A2780 cells assessed as reduction in cell viability after 72 hrs by MTT assay. As to conditions: A2780, 72 h.
Another assay has as its system HepG2. Put plainly: Cytotoxicity against human HepG2 cells assessed as reduction in cell viability after 72 hrs by MTT assay. The conditions noted are these: HepG2, 72 h. A general note: Tetrazolium assays rely on reduction of a dye to a coloured formazan, in cell work by metabolically active cells.
A further assay has as its system HCT-116. In words: Cytotoxicity against human HCT116 cells assessed as reduction in cell viability after 72 hrs by MTT assay. The conditions noted are these: HCT-116, 72 h.
In a further assay the test system is BGC-823. In words: Cytotoxicity against human BGC823 cells assessed as reduction in cell viability after 72 hrs by MTT assay. As to conditions: BGC-823, 72 h.
The subject of another assay is HT-29. Put plainly: Cytotoxicity against human HT-29 cells assessed as reduction in cell viability after 72 hrs by MTT assay. As to conditions: HT-29, 72 h.
Another assay deals with MCF7. In words: Cytotoxicity against human MCF7 cells assessed as reduction in cell viability after 72 hrs by MTT assay. As to conditions: MCF7, 72 h.

What is called IC50 is the concentration that inhibits the measured activity by half. As for `CN1[C@@H]2c3[nH]c4ccccc4c3C[C@H]1[C@H](C#N)N1[C@@H](CNC(=O)c3cc4ccccc4s3)c3[nH]c4ccccc4c3C[C@@H]21`, the IC50 came to 20 nM with A2780; 300 nM in the assay on HepG2; 500 nM in the assay with HCT-116; 240 nM in the assay with BGC-823; 640 nM in the assay with HT-29; 3180 nM in the assay on MCF7.
`CN1[C@@H]2c3[nH]c4ccccc4c3C[C@H]1[C@H](C#N)N1[C@@H](CNC(=O)c3ccccc3)c3[nH]c4ccccc4c3C[C@@H]21`: the IC50 amounted to 200 nM in the assay on A2780; 250 nM with HepG2; 430 nM in the assay on HCT-116; 740 nM in the assay on BGC-823; 140 nM in the assay with HT-29; 9670 nM in the assay on MCF7.
Consider `COc1ccc(/C=C/C(=O)NC[C@H]2c3[nH]c4ccccc4c3C[C@H]3[C@H]4c5[nH]c6ccccc6c5C[C@@H]([C@H](C#N)N23)N4C)cc1`, for which the IC50 with A2780 is 860 nM; with HepG2 it was 2140 nM; in the assay with HCT-116, 5060 nM; in the assay on BGC-823, 5450 nM; with HT-29, 3060 nM; in the assay on MCF7, 4220 nM.
Turning to `CN1[C@@H]2c3[nH]c4ccccc4c3C[C@H]1[C@H](C#N)N1[C@@H](CNC(=O)c3cc4ccccc4[nH]3)c3[nH]c4ccccc4c3C[C@@H]21`, the IC50 worked out at 7100 nM in the assay with A2780; 440 nM with HepG2; 880 nM with HCT-116; 1690 nM with BGC-823; 1220 nM in the assay with HT-29; 9780 nM in the assay with MCF7.
Turning to `CN1[C@@H]2c3[nH]c4ccccc4c3C[C@H]1[C@H](C#N)N1[C@@H](CNC(=O)c3ccc(F)cc3)c3[nH]c4ccccc4c3C[C@@H]21`, the IC50 in the assay on A2780 worked out at 250 nM; with HepG2, 210 nM; in the assay on HCT-116, 140 nM; in the assay on BGC-823, 310 nM; with HT-29, 1370 nM; in the assay on MCF7, 980 nM.
As to `CN1[C@@H]2c3[nH]c4ccccc4c3C[C@H]1[C@H](C#N)N1[C@@H](CNC(=O)c3cccs3)c3[nH]c4ccccc4c3C[C@@H]21`, the IC50 in the assay on A2780 came out at 230 nM; in the assay with HepG2, 180 nM; in the assay on HCT-116, 550 nM; in the assay on BGC-823, 280 nM; in the assay on HT-29 it was 1330 nM; in the assay with MCF7 it was 470 nM.
As for `CN1[C@@H]2c3[nH]c4ccccc4c3C[C@H]1[C@H](C#N)N1[C@@H](CNC(=O)/C=C/c3ccccc3)c3[nH]c4ccccc4c3C[C@@H]21`, the IC50 in the assay on A2780 is 770 nM; in the assay on HepG2, 470 nM; in the assay on HCT-116 it was 1960 nM; in the assay with BGC-823 it was 4300 nM; in the assay on HT-29 it was 1400 nM; in the assay with MCF7, 7190 nM.
For `CN1[C@@H]2c3[nH]c4ccccc4c3C[C@H]1[C@H](C#N)N1[C@@H](CN3C(=O)c4ccccc4C3=O)c3[nH]c4ccccc4c3C[C@@H]21`, the IC50 with A2780 is 80 nM; in the assay with HepG2 it was 20 nM; in the assay on HCT-116, 40 nM; with BGC-823, 410 nM; in the assay with HT-29 it was 80 nM; in the assay with MCF7 it was 610 nM.
As for `CN1[C@@H]2c3[nH]c4ccccc4c3C[C@H]1[C@H](C#N)N1[C@@H](CNC(=O)/C=C/c3cccc(C(F)(F)F)c3)c3[nH]c4ccccc4c3C[C@@H]21`, the IC50 in the assay with A2780 was above 10000 nM; in the assay on HepG2, 540 nM; in the assay with HCT-116, 610 nM; in the assay on BGC-823, 910 nM; in the assay on HT-29, 5060 nM; in the assay with MCF7, 110 nM.
With `CN1[C@@H]2c3[nH]c4ccccc4c3C[C@H]1[C@H](C#N)N1[C@@H](CNC(=O)c3cccc4c3CCCC4)c3[nH]c4ccccc4c3C[C@@H]21`, the 50% inhibitory concentration (IC50) with A2780 turned out to be 810 nM; with HepG2 it was 540 nM; with HCT-116 it was 4210 nM; in the assay on BGC-823 it was 3540 nM; in the assay on HT-29, 3340 nM; in the assay with MCF7 it was 4470 nM.
For `CN1[C@@H]2c3[nH]c4ccccc4c3C[C@H]1[C@H](C#N)N1[C@@H](CNC(=O)c3ccc4ccccc4n3)c3[nH]c4ccccc4c3C[C@@H]21`, the half-inhibitory concentration (IC50) with A2780 worked out at 60 nM; in the assay on HepG2 it was 110 nM; in the assay on HCT-116 it was 240 nM; with BGC-823, 80 nM; in the assay on HT-29, 150 nM; in the assay on MCF7, 150 nM.
`CN1[C@@H]2c3[nH]c4ccccc4c3C[C@H]1[C@H](C#N)N1[C@@H](CNC(=O)c3ccc(Cl)cc3)c3[nH]c4ccccc4c3C[C@@H]21`: the IC50 with A2780 came to 230 nM; in the assay on HepG2, 350 nM; with HCT-116, 630 nM; with BGC-823 it was 110 nM; in the assay on HT-29 it was 130 nM; in the assay with MCF7, 610 nM.
Regarding `CN1[C@@H]2c3[nH]c4ccccc4c3C[C@H]1[C@H](C#N)N1[C@@H](CNC(=O)c3cc4ccccc4o3)c3[nH]c4ccccc4c3C[C@@H]21`, the IC50 in the assay with A2780 came to 230 nM; in the assay on HepG2 it was 280 nM; with HCT-116, 330 nM; in the assay with BGC-823 it was 210 nM; in the assay with HT-29, 850 nM; with MCF7, 320 nM.
On to `COc1ccc(C(=O)NC[C@H]2c3[nH]c4ccccc4c3C[C@H]3[C@H]4c5[nH]c6ccccc6c5C[C@@H]([C@H](C#N)N23)N4C)cc1`, for which the IC50 is 320 nM in the assay on A2780; 310 nM with HepG2; 430 nM in the assay on HCT-116; 320 nM with BGC-823; 840 nM in the assay with HT-29; 600 nM in the assay on MCF7.
As to `CC(=O)NC[C@H]1c2[nH]c3ccccc3c2C[C@H]2[C@H]3c4[nH]c5ccccc5c4C[C@@H]([C@H](C#N)N12)N3C`, the IC50 in the assay on A2780 worked out at 630 nM; in the assay on HepG2, 420 nM; with HCT-116 it was 4340 nM; in the assay with BGC-823, 2200 nM; in the assay on HT-29, 1180 nM; in the assay on MCF7 it was 5300 nM.
For the compound `CN1[C@@H]2c3[nH]c4ccccc4c3C[C@H]1[C@H](C#N)N1[C@@H](CNC(=O)c3ccco3)c3[nH]c4ccccc4c3C[C@@H]21`, the IC50 stood at 120 nM with A2780; 250 nM in the assay on HepG2; 170 nM in the assay on HCT-116; 300 nM in the assay on BGC-823; 100 nM in the assay with HT-29; 160 nM in the assay on MCF7.
Turning to `CCc1ccc(C(=O)NC[C@H]2c3[nH]c4ccccc4c3C[C@H]3[C@H]4c5[nH]c6ccccc6c5C[C@@H]([C@H](C#N)N23)N4C)cc1`, the IC50 in the assay with A2780 worked out at 670 nM; in the assay with HepG2 it was 570 nM; with HCT-116 it was 100 nM; in the assay with BGC-823, 660 nM; in the assay on HT-29 it was 3560 nM; in the assay with MCF7, 170 nM.
As for `CN1[C@@H]2c3[nH]c4ccccc4c3C[C@H]1[C@H](C#N)N1[C@@H](CNC(=O)c3cccc(C(F)(F)F)c3)c3[nH]c4ccccc4c3C[C@@H]21`, the IC50 turned out to be 210 nM with A2780; 340 nM in the assay with HepG2; 630 nM with HCT-116; 870 nM in the assay on BGC-823; 140 nM in the assay with HT-29; 110 nM with MCF7.
Consider `CN1[C@@H]2c3[nH]c4ccccc4c3C[C@H]1[C@H](C#N)N1[C@@H](CNC(=O)c3ccccn3)c3[nH]c4ccccc4c3C[C@@H]21`, for which the concentration for half-maximal inhibition (IC50) in the assay with A2780 worked out at 30 nM; in the assay with HepG2, 70 nM; in the assay with HCT-116, 40 nM; in the assay with BGC-823, 80 nM; in the assay with HT-29, 70 nM; in the assay with MCF7, 40 nM.
In the case of `CN1[C@@H]2c3[nH]c4ccccc4c3C[C@H]1[C@H](C#N)N1[C@@H](CNC(=O)c3ccc4ccccc4c3)c3[nH]c4ccccc4c3C[C@@H]21`, the IC50 with A2780 is 1030 nM; in the assay on HepG2 it was 1210 nM; in the assay on HCT-116, 420 nM; in the assay with BGC-823, 1110 nM; in the assay with HT-29, 4940 nM; in the assay on MCF7, 4650 nM.

(Values after ChEMBL document CHEMBL4052628, “Synthesis and cytotoxicity of a novel series of saframycin-ecteinascidin analogs containing tetrahydro-β-carboline moieties” (Eur J Med Chem, 2017).)
